From patent US20200062696A1, “COMPOSITIONS AND METHODS FOR INHIBITING RETICULON 4” (THE REGENTS OF THE UNIVERSITY OF CALIFORNIA, priority 2017, published 2020)

What was measured:
[1] = Body weight and overt toxicity of mice in the tumor xenograft study; type: in vivo; conditions: 50 mg/kg ip once per day, weighed at the end of the study
Method: Mice from tumor xenograft studies shown in FIG. 1E were weighed at the end of the study. […] Data are presented as mean±sem, n=8 mice/group.
Tumor Xenograft Growth Studies. C.B17 SCID male mice (6-8 weeks old) were injected subcutaneously into the flank with 2,000,000 cells in serum-free media. […] Tumors were measured every 7 days by caliper measurements.

[2] = target: T1, C1101 in reticulon 4 (RTN4, Uniprot ID Q9NQC3-1) (Homo sapiens, UniProt Q9NQC3); assay: Competitive isoTOP-ABPP against IAyne labeling in SW620 proteomes: RTN4 C1101; type: binding
T1 construct: endogenous in cells; host or cells: SW620 colorectal cancer cell lysate
T1 sequence (Q9NQC3 1-1192): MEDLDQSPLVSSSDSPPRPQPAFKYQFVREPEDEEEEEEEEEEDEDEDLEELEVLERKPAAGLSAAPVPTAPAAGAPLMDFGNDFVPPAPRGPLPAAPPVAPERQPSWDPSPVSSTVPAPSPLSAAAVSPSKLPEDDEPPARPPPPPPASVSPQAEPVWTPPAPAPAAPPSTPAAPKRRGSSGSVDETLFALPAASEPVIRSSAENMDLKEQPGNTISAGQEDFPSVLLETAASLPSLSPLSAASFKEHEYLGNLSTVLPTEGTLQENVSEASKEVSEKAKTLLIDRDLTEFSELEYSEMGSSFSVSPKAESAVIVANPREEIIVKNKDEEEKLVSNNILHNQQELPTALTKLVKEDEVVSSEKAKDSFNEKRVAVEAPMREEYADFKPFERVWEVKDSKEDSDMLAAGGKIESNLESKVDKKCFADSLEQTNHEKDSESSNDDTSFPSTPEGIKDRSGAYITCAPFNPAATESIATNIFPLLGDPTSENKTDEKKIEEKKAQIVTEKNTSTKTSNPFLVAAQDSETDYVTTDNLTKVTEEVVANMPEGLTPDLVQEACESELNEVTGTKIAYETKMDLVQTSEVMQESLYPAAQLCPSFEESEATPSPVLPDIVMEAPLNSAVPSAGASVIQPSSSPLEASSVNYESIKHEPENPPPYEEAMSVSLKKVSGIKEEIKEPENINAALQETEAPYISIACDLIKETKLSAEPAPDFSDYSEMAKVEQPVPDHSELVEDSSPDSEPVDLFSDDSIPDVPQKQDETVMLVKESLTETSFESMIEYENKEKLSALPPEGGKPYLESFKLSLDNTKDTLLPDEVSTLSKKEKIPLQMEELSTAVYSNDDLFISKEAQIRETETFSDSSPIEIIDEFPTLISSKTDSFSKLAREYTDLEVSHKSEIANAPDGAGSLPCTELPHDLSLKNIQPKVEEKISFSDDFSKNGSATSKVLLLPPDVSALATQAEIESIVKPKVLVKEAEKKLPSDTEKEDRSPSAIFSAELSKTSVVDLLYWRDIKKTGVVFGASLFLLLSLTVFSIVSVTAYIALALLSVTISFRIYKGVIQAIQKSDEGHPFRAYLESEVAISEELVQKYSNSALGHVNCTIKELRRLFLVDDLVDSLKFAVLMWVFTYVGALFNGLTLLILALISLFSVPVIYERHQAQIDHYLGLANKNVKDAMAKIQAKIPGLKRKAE
Source text: We next performed isoTOP-ABPP studies to identify the direct targets of these lead compounds. We competed either vehicle or DKM 3-30 against labeling of SW620 proteomes with a broad cysteine-reactive probe, iodoacetamide-alkyne (IAyne), followed by appending probe-labeled proteins with a biotin-azide tag bearing a TEV protease recognition site and an isotopically light (for vehicle-treated) or heavy (for fragment-treated) tags via copper catalyzed azide-alkyne cycloaddition (CuAAC)^6,9. We then combined control and treated proteomes in a 1:1 ratio, enriched probe-labeled proteins with avidin, and digested proteomes with trypsin. Avidin-enriched probe-modified tryptic peptides were released by TEV protease digestion for subsequent quantitative proteomic analysis. Through these studies, we identified the top hit for DKM 3-30 as C1101 in reticulon 4 (RTN4, Uniprot ID Q9NQC3-1) with a light to heavy ratio of 3.0 (FIG. 2A; Table 2).
IsoTOP-ABPP Analysis. IsoTOP-ABPP analyses were performed as previously described^5-7. For competitive IsoTOP-ABPP, SW620 cell lysates were pre-incubated with DMSO vehicle or DKM 3-30 (50 μM) for 30 min at 37° C. in phosphate-buffered saline (PBS), and then labeled with IAyne (100 μM) for 1 h at room temperature. […]

For `C=CC(=O)Nc1ccc(Oc2ccc(Cl)cc2)cc1` [DKM 3-30, N-(4-(4-chlorophenoxy)phenyl)acrylamide], the “body weight and signs of overt toxicity” value [1] was “without any changes in body weight or any signs of overt toxicity”, the “light to heavy ratio” value ([2]; DKM 3-30 50 μM, 30 min 37° C., then IAyne 100 μM, ratio >3 indicates bound sites) was 3.0 and the “Ave area ratio (light to heavy ratio), peptide YSNSALGHVNC*TIK, C1101, Q9NQC3” value ([2]; SW620 cell proteomes pre-treated with DMSO (light) or ligand 50 μM (heavy) 30 min at 37° C., then IAyne 100 μM 1h, averaged over runs) was 3.04.
